In patent US4492650A, “A54556 Antibiotics and process for production thereof” (Eli Lilly and Company, priority 1982, dated 1985):
Converted amounts (≈) assume the structure as drawn. “And” between values parts separate entries of the source, which are not always exact repeats. Identical values can stand only once. Like-named read-outs stand apart in the source and are kept apart here. Bridge positions count the residues as written; N and C are the ends. Square brackets hold non-standard residues; d marks the D form. Peptide text beside a SMILES is read from it. * marks the point of attachment. ξ: configuration not given here. Hexadienoyl(2E,4E) = C/C=C/C=C/C(=O)*; ξPro(4ξ-Me) = CC1CNC(C(=O)O)C1; NMeA = CN[CH](C)C(=O)O

Assays:
[1] = test system: Propionibacterium acnes 79; test: MIC, agar-dilution method; format: cell-based; conditions: Cutibacterium acnes
Text: (§1) Antibiotic A54556 factors A, B, C, D, E, F, G, and H have been tested and found to be active against a number of anaerobic bacteria, as recorded in Table 14, which follows, the MIC values having been determined by the agar-dilution method.

[2] = test system: Peptostreptococcus intermedius 1264; test: MIC, agar-dilution method; format: cell-based
Text: as §1

[3] = test system: Bacteroides fragilis 1936B; test: MIC, agar-dilution method; format: cell-based
Text: as §1

[4] = test system: Fusobacterium necrophorum 6054A; test: MIC, agar-dilution method; format: cell-based
Text: as §1

[5] = test system: Bacteroides fragilis 1877; test: MIC, agar-dilution method; format: cell-based
Text: as §1

[6] = test system: Bacteroides melaninogenicus 1856/28; test: MIC, agar-dilution method; format: cell-based; conditions: Prevotella intermedia
Text: as §1

[7] = test system: Clostridium difficile 2994; test: MIC, agar-dilution method; format: cell-based; conditions: Clostridioides difficile
Text: as §1

[8] = test system: Clostridium septicum 1128; test: MIC, agar-dilution method; format: cell-based
Text: as §1

[9] = test system: Bacteroides thetaiotaomicron 1438; test: MIC, agar-dilution method; format: cell-based
Text: as §1

[10] = test system: Eubacterium aerofaciens 1235; test: MIC, agar-dilution method; format: cell-based; conditions: Collinsella aerofaciens
Text: as §1

Bacteroides fragilis 111 = test: MIC, agar-dilution method; format: cell-based
Text: as §1

[11] = test system: Bacteroides melaninogenicus 2736; test: MIC, agar-dilution method; format: cell-based
Text: as §1

[12] = test system: Staphylococcus aureus V41; conditions: second test, Table 13, benzylpenicillin resistant
[13] = test system: Streptococcus pyogenes (Group A) C203; conditions: second test, Table 13
[14] = test system: experimental bacterial infections; test: In vivo antimicrobial activity against experimental bacterial infections; conditions: mice, subcutaneously
Experimental: (§2) When two doses of test compound were administered subcutaneously to mice in illustrative infections, the activity is measured as an ED50 value [effective does in mg./kg. to protect fifty percent of the test animals: See Warren Wick et al., J. Bacteriol. 81, 233-235 (1961)]. The ED50 values for these antibiotic A54556 factors are recorded in Table 15, which follows.

[15] = test system: Peptostreptococcus anaerobius 1428; test: MIC, agar-dilution method; format: cell-based
[16] = test system: Streptococcus sp. (Group D) X66; test: Disc-plate sensitivity; format: cell-based; conditions: second test, Table 13; for zone of inhibition at 30 µg/disc / zone of inhibition at 300 µg/disc: Streptococcus
[17] = test system: Clostridium perfringens 81; test: microbe, parasite or virus in culture; format: cell-based
Electrometric titration = format: physicochemical; conditions: 66 percent dimethylformamide in water
Text: Antibiotic A54556 factor A is a tan, amorphous solid. […] As determined by electron impact and field desorption mass spectrometry, A54556 factor A has a molecular weight of 718.

Solubility = conditions: lower alcohols (methyl, ethyl, isopropyl, n-propyl, n-butyl), acetone, ethyl acetate, tetrahydrofuran, pyridine, dimethyl sulfoxide
[18] = test system: Staphylococcus aureus 3055; conditions: second test, Table 13, benzylpenicillin-susceptible
[19] = test system: Staphylococcus epidermidis EPI1; conditions: second test, Table 13
[20] = test system: Fusobacterium symbiosum 1470; test: MIC, agar-dilution method; format: cell-based
Peptococcus prevoti 1281 = test: MIC, agar-dilution method; format: cell-based
[21] = test system: Bacteroides corrodens 1874; test: MIC, agar-dilution method; format: cell-based; conditions: Eikenella corrodens
anaerobic bacteria = test: Activity against anaerobic bacteria; format: cell-based; conditions: agar-dilution method
[22] = test system: Peptococcus asaccharolyticus 1302; test: MIC, agar-dilution method; format: cell-based; conditions: Peptoniphilus asaccharolyticus
[23] = test system: Streptococcus pneumoniae Park I; conditions: second test, Table 13
S. pyogenes = test: In vivo protection against experimental bacterial infection in mice; conditions: Streptococcus pyogenes, sc, two doses subcutaneously
Experimental: as §2

[24] = test system: Bacteroides vulgatis 1211; test: MIC, agar-dilution method; format: cell-based

SMILES: C/C=C/C=C/C(=O)NC(Cc1ccccc1)C(=O)NC1COC(=O)C2CCCN2C(=O)C(C)NC(=O)C(C)N(C)C(=O)C2CC(C)CN2C1=O (centres unmarked) [Factor C] ({Hexadienoyl(2E,4E)}-FS[ξPro(4ξ-Me)][NMeA]AP; ester 2-C; configuration not given here)
- MIC [1]: 32 µg/mL (≈ 46.2 µM)
- MIC [2]: > 128 µg/mL
- MIC [3]: > 128 µg/mL
- MIC [4]: > 128 µg/mL
- MIC [5]: > 128 µg/mL
- MIC [6]: > 128 µg/mL
- MIC [7]: > 128 µg/mL
- MIC [8]: > 128 µg/mL
- MIC [9]: > 128 µg/mL
- MIC [10]: > 128 µg/mL
- MIC (Bacteroides fragilis 111): > 128 µg/mL
- MIC [11]: > 128 µg/mL
- Zone diameter ([12]; 30 mcg./disc): 24 mm.
- Zone diameter ([12]; 30 mcg./disc, listed as C): 21 mm.
- Zone diameter ([12]; 300 mcg./disc): 30 mm. and 25 mm.
- Zone diameter ([13]; 30 mcg./disc): 22 mm. and 28 mm.
- Zone diameter ([13]; 300 mcg./disc): 30 mm.
- Zone diameter ([13]; 300 mcg./disc, listed as C): 33 mm.
- in vivo antimicrobial activity against experimental bacterial infections [14]: have shown in vivo antimicrobial activity
- MIC [15]: > 128 µg/mL
- Zone diameter ([16]; 30 mcg./disc): 25 mm.
- Zone diameter ([16]; 300 mcg./disc, listed as C): 35 mm.
- zone of inhibition at 30 µg/disc ([16]; 30 mcg./disc, read-out: Zone diameter): 24 mm
- zone of inhibition at 300 µg/disc ([16]; 300 mcg./disc, read-out: Zone diameter): 25 mm
- MIC [17]: > 128 µg/mL
- titratable groups (Electrometric titration): no titratable groups
- solubility in organic solvents (Solubility): soluble
- Zone diameter ([18]; 30 mcg./disc): 21 mm. and 23 mm.
- Zone diameter ([18]; 300 mcg./disc): 25 mm. and 31 mm.
- Zone diameter ([19]; 30 mcg./disc): 21 mm. and 23 mm.
- Zone diameter ([19]; 300 mcg./disc): 24 mm.
- Zone diameter ([19]; 300 mcg./disc, listed as C): 26 mm.
- MIC [20]: > 128 µg/mL
- MIC (Peptococcus prevoti 1281): > 128 µg/mL
- MIC [21]: > 128 µg/mL
- activity against a number of anaerobic bacteria (anaerobic bacteria): active
- MIC ([22]; agar-dilution, read-out: MIC): 16 µg/mL (≈ 23.1 µM)
- Zone diameter ([23]; 30 mcg./disc): 25 mm. and 30 mm.
- Zone diameter ([23]; 300 mcg./disc): 30 mm.
- Zone diameter ([23]; 300 mcg./disc, listed as C): 35 mm.
- ED50 (S. pyogenes): 11.1 mg/kg
- MIC [24]: > 128 µg/mL

SMILES: C/C=C/C=C/C(=O)NC(Cc1ccccc1)C(=O)NC1COC(=O)C2CCCN2C(=O)C(C)NC(=O)C(C)N(C)C(=O)C2CCCN2C1=O (centres unmarked) [Factor E] ({Hexadienoyl(2E,4E)}-FSP[NMeA]AP; ester 2-C; configuration not given here)
- MIC [1]: > 128 µg/mL
- MIC [2]: > 128 µg/mL
- MIC [3]: > 128 µg/mL
- MIC [4]: > 128 µg/mL
- MIC [5]: > 128 µg/mL
- MIC [6]: > 128 µg/mL
- MIC [7]: > 128 µg/mL
- MIC [8]: > 128 µg/mL
- MIC [9]: > 128 µg/mL
- MIC [10]: > 128 µg/mL
- MIC (Bacteroides fragilis 111): > 128 µg/mL
- MIC [11]: > 128 µg/mL
- Zone diameter ([12]; 30 mcg./disc): 17 mm.
- Zone diameter ([12]; 30 mcg./disc, listed as E): 13 mm.
- Zone diameter ([12]; 300 mcg./disc): 27 mm. and 23 mm.
- Zone diameter ([13]; 30 mcg./disc, listed as E): 20 mm. and 18 mm.
- Zone diameter ([13]; 300 mcg./disc): 30 mm. and 24 mm.
- in vivo antimicrobial activity against experimental bacterial infections [14]: have shown in vivo antimicrobial activity
- MIC [15]: > 128 µg/mL
- Zone diameter ([16]; 30 mcg./disc, listed as E): 21 mm.
- Zone diameter ([16]; 300 mcg./disc): 27 mm.
- zone of inhibition at 30 µg/disc ([16]; read-out: Zone diameter, 30 mcg./disc): 22 mm
- zone of inhibition at 300 µg/disc ([16]; read-out: Zone diameter, 300 mcg./disc): 28 mm
- MIC [17]: > 128 µg/mL
- titratable groups (Electrometric titration): no titratable groups
- solubility in organic solvents (Solubility): soluble
- Zone diameter ([18]; 30 mcg./disc): 17 mm.
- Zone diameter ([18]; 30 mcg./disc, listed as E): 15 mm.
- Zone diameter ([18]; 300 mcg./disc): 23 mm.
- Zone diameter ([19]; 30 mcg./disc, listed as E): 13 mm. and 11 mm.
- Zone diameter ([19]; 300 mcg./disc): 25 mm. and 24 mm.
- MIC [20]: 128 µg/mL (≈ 189 µM)
- MIC (Peptococcus prevoti 1281): 128 µg/mL (≈ 189 µM)
- MIC [21]: > 128 µg/mL
- activity against a number of anaerobic bacteria (anaerobic bacteria): active
- MIC [22]: 64 µg/mL (≈ 94.3 µM)
- Zone diameter ([23]; 30 mcg./disc): 25 mm.
- Zone diameter ([23]; 30 mcg./disc, listed as E): 22 mm.
- Zone diameter ([23]; 300 mcg./disc): 35 mm. and 28 mm.
- ED50 (S. pyogenes): > 70 mg/kg
- MIC [24]: > 128 µg/mL
